What was measured:
V₁ receptor = biological target: T1, V₁ receptor (Rattus norvegicus, UniProt P30560); assay: V₁ receptor binding assay ([³H]-Arg-vasopressin, rat liver plasma membrane preparations); conditions: 37°C for 10 minutes
T1 construct: Using rat liver plasma membrane preparations; from tissue; host or cells: rat liver plasma membranes
Description: Using rat liver plasma membrane preparations prepared according to Ichihara's method [cf: Akira Ichihara, J. Bio. Chem., 258, 9283 (1983)], the plasma membrane (50000dpm, 2x10⁻¹⁰ M) of [³H]-Arg-vasopressin and a test compound (60 µg, 10⁻⁸-10⁻⁴ M) are incubated at 37°C for 10 minutes in 100 mM Tris-HCl buffer (pH: 8.0, 250 µl) containing 5 mM MgCl₂, 1 mM EDTA and 0.1 % BSA. After incubation, the mixture is filtered three times using the glass filter (GF/F) so as to separate the membrane preparation combined with vasopressin and then washed with the buffer (5 ml). This glass filter is taken out and mixed with liquid scintillation cocktail. The amount of [³H]-vasopressin combined with the membrane is measured by liquid scintillation counter and the rate of the inhibitory effect of the test compound is estimated according to the following equation. Rate of the inhibitory effect (%) = 100 -(C1 - B1)/(C0 - B1)X 100 [formula] C¹: The amount of [³H]-vasopressin combined with the membrane in the presence of the test compound (in prescribed amount). C⁰: The amount of [³H]-vasopressin combined with the membrane in the absence of the test compound. B¹: The amount of [³H]-vasopressin combined with the membrane in the presence of the excess amount of vasopressin (10⁻⁶ M).
(§1) The results are expressed as IC₅₀ values, which is the concentration of the test compound required to achieve the inhibitory effect in the rate of 50 %.

V₂ receptor = biological target: T2, V₂ receptor (Rattus norvegicus, UniProt Q00788); assay: V₂ receptor binding assay ([³H]-Arg-vasopressin, rat kidney plasma membrane preparations); conditions: 4°C for 3 hours
T2 construct: Using rat kidney plasma membrane preparations; from tissue; host or cells: rat kidney plasma membranes
Description: Using rat kidney plasma membrane preparations prepared according to O. Hechter's method [cf: J. Bio. […] After incubation, the mixture is filtered using the glass filter (GF/F) so as to separate the membrane preparation combined with vasopressin and then washed twice with the buffer (5 ml). This glass filter is taken out and mixed with liquid scintillation cocktail. The amount of [³H]-vasopressin combined with the membrane is measured by liquid scintillation counter and the rate of the inhibitory effect of the test compound is estimated according to the following equation. Rate of the inhibitory effect (%) = 100 -(C1 - B1)/(C0 - B1)X 100 [formula] C¹: The amount of [³H]-vasopressin combined with the membrane in the presence of the test compound (in prescribed amount). C⁰: The amount of [³H)-vasopressin combined with the membrane in the absence of the test compound. B¹: The amount of [³H]-vasopressin combined with the membrane in the presence of the excess amount of vasopressin (10⁻⁶ M).
as §1

T2 sequence (Q00788 whole entry): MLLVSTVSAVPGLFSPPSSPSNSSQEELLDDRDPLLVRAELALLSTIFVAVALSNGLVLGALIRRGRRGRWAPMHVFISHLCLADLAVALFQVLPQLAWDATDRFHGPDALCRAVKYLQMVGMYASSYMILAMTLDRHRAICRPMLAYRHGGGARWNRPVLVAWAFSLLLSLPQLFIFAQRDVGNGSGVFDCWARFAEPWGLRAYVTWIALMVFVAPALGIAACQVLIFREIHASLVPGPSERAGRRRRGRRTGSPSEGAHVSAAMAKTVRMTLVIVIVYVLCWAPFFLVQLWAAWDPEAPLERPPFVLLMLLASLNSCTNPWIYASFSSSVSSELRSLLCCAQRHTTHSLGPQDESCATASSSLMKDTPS
T1 sequence (P30560 whole entry): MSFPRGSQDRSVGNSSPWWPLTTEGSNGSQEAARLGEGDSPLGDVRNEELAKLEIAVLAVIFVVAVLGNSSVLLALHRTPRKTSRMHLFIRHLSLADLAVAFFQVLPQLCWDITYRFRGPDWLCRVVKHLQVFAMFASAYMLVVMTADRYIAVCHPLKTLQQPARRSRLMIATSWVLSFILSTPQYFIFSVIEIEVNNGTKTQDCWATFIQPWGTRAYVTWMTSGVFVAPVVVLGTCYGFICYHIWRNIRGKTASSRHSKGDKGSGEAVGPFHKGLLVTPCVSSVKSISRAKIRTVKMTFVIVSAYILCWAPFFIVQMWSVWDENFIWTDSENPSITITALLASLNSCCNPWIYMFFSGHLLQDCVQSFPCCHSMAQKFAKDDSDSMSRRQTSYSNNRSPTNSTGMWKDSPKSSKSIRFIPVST

Row | Structure (SMILES) | IC50 (V₁ receptor) [nM] | IC50 (V₂ receptor) [nM]
1 | O=C(Nc1ccc(C(=O)N2CCCCc3ccccc32)cc1)C1CCCCC1 [compound 26] | 71 | 25
2 | O=C(Nc1ccc(C(=O)N2CCCCc3ccccc32)cc1)c1ccccc1 [compound 27] | 95 | 70
3 | COc1cccc(C(=O)Nc2ccc(C(=O)N3CCCCc4ccccc43)cc2)c1 [compound 29] | 150 | 69
4 | O=C(Nc1ccc(C(=O)N2CCCCc3ccccc32)cc1)c1cccc(Cl)c1 [compound 30] | 150 | 29
5 | Cc1ccccc1C(=O)Nc1ccc(C(=O)N2CCCCCc3ccccc32)cc1 [compound 36] | 410 | 28
6 | O=C(Nc1ccc(C(=O)N2CCCCc3ccccc32)cc1)c1ccccc1Br [compound 56] | 25 | 37
7 | O=C(Nc1ccc(C(=O)N2CCCCc3ccccc32)cc1)c1cccc([N+](=O)[O-])c1 [compound 57] | 460 | 160
8 | O=C(Nc1ccc(C(=O)N2CCCCc3ccccc32)cc1)c1cccc(C(F)(F)F)c1 [compound 58] | 400 | 140
9 | CCOc1cccc(C(=O)Nc2ccc(C(=O)N3CCCCc4ccccc43)cc2)c1 [compound 59] | 310 | 240
10 | COc1cc(OC)cc(C(=O)Nc2ccc(C(=O)N3CCCCc4ccccc43)cc2)c1 [compound 60] | 180 | 150
11 | O=C(Nc1ccc(C(=O)N2CCCCc3ccccc32)cc1)c1ccc(Cl)cc1Cl [compound 62] | 98 | 23
12 | O=C(Nc1ccc(C(=O)N2CCCCc3ccccc32)cc1)c1c(F)cccc1Cl [compound 63] | 140 | 46
13 | Nc1cccc(C(=O)Nc2ccc(C(=O)N3CCCCc4ccccc43)cc2)c1 [compound 67] | 340 | 50
14 | CC(C)NCCCCOc1ccccc1C(=O)Nc1ccc(C(=O)N2CCCCc3ccccc32)cc1 [compound 68] | 13 | 190
15 | O=C(Nc1ccc(C(=O)N2CCCCc3ccccc32)cc1)c1cccc(O)c1 [compound 69] | 66 | 120
16 | CCN(CC)CCOc1ccccc1C(=O)Nc1ccc(C(=O)N2CCCCc3ccccc32)cc1 [compound 71] | 180 | 85
17 | CC(=O)NCCCCOc1ccccc1C(=O)Nc1ccc(C(=O)N2CCCCc3ccccc32)cc1 [compound 72] | 120 | 160
18 | O=C(Nc1ccc(C(=O)N2CCCCc3ccccc32)cc1)c1ccccc1OCCCCCCN1CCOCC1 [compound 74] | 100 | 510

Row | Structure (SMILES) | IC50 (V₁ receptor) [nM] | IC50 (V₂ receptor) [nM]
19 | CN1CCN(CCCCCCOc2ccccc2C(=O)Nc2ccc(C(=O)N3CCCCc4ccccc43)cc2)CC1 [compound 75] | 69 | 300
20 | COc1cc(C(=O)N2CCCCc3ccccc32)ccc1NC(=O)c1ccccc1 [compound 77] | 85 | 90
21 | Cc1cc(C(=O)N2CCCCc3ccccc32)ccc1NC(=O)c1ccccc1C [compound 78] | 100 | 84
22 | CN1CCCN(C(=O)c2ccc(NC(=O)C3CCCCC3)cc2)c2ccccc21 [compound 88] | 340 | 21
23 | O=C(CNc1ccccc1Cl)Nc1ccc(C(=O)N2CCCCc3ccccc32)cc1 [compound 116] | 40 | 39
24 | CC(=O)OCCCCOc1ccccc1C(=O)Nc1ccc(C(=O)N2CCCCc3ccccc32)cc1 [compound 117] | 220 | 240
25 | NC(=O)COc1ccccc1C(=O)Nc1ccc(C(=O)N2CCCCc3ccccc32)cc1 [compound 119] | 49 | 59
26 | O=C(Nc1ccc(C(=O)N2CCCCc3ccccc32)cc1)c1ccccc1OCCCCO [compound 120] | 290 | 280
27 | CCOC(=O)COc1ccccc1C(=O)Nc1ccc(C(=O)N2CCCCc3ccccc32)cc1 [compound 121] | 450 | 180
28 | CCN(CC)C(=O)COc1ccccc1C(=O)Nc1ccc(C(=O)N2CCCCc3ccccc32)cc1 [compound 124] | 150 | 130
29 | CN(CCO)CCOc1ccccc1C(=O)Nc1ccc(C(=O)N2CCCCc3ccccc32)cc1 [compound 125] | 91 | 280
30 | Cc1ccccc1C(=O)Nc1ccc(C(=O)N2CCCC(OCCCN3C(=O)c4ccccc4C3=O)c3ccccc32)cc1 (centres unmarked) [compound 172] | 260 | 23
31 | Cc1ccccc1C(=O)Nc1ccc(C(=O)N2CCCC(OC(=O)N(C)C)c3ccccc32)cc1 (centres unmarked) [compound 187] | 450 | 29
32 | CN(C)C1CCCN(C(=O)c2ccc(NC(=O)c3ccccc3C(F)(F)F)cc2)c2ccccc21 (centres unmarked) [compound 188] | 470 | 39
33 | Cc1ccccc1C(=O)Nc1ccc(C(=O)N2CCC(=O)Cc3ccccc32)cc1 [compound 193] | 170 | 36
34 | O=C(Nc1ccc(C(=O)N2CCC=Cc3ccccc32)cc1)c1ccccc1Cl [compound 207] | 160 | 45
35 | CNC1CCCCN(C(=O)c2ccc(NC(=O)c3ccccc3C)cc2)c2ccccc21 (centres unmarked) [compound 320] |  | 39

Now those with a lower IC50 (V₂ receptor), led by results:

Row | IC50 (V₁ receptor) [nM] | IC50 (V₂ receptor) [nM] | Structure (SMILES)
36 | 56 | 18 | Cc1ccccc1C(=O)Nc1ccc(C(=O)N2CCCCc3ccccc32)cc1 [compound 28]
37 | 300 | 16 | O=C(Nc1ccc(C(=O)N2CCCCc3ccccc32)cc1)c1cc(Cl)cc(Cl)c1 [compound 32]
38 | 400 | 18 | Cc1ccccc1C(=O)Nc1ccc(C(=O)N2CC(C)Cc3ccccc32)cc1 (centres unmarked) [compound 46]
39 | 69 | 7 | Cc1cccc(C)c1C(=O)Nc1ccc(C(=O)N2CCCCc3ccccc32)cc1 [compound 64]
40 | 41 | 12 | NCCCCOc1ccccc1C(=O)Nc1ccc(C(=O)N2CCCCc3ccccc32)cc1 [compound 70]
41 | 42 | 17 | COc1cc(C(=O)N2CCCCc3ccccc32)ccc1NC(=O)C1CCCCC1 [compound 76]
42 | 380 | 14 | Cc1ccccc1C(=O)Nc1ccc(C(=O)N2CCCN(C)c3ccccc32)cc1 [compound 90]
43 | 11 | 6 | CCN(CC(=O)Nc1ccc(C(=O)N2CCCCc3ccccc32)cc1)c1ccccc1 [compound 114]
44 | 12 | 6 | C=CCN(CC(=O)Nc1ccc(C(=O)N2CCCCc3ccccc32)cc1)c1ccccc1 [compound 115]
45 | 23 | 7 | C#CCN(CC(=O)Nc1ccc(C(=O)N2CCCCc3ccccc32)cc1)c1ccccc1 [compound 130]
46 | 150 | 8 | Cc1ccccc1C(=O)Nc1ccc(C(=O)N2CCCC(O)c3ccccc32)cc1 (centres unmarked) [compound 143]
47 | 280 | 9 | COC1CCCN(C(=O)c2ccc(NC(=O)c3ccccc3C)cc2)c2ccccc21 (centres unmarked) [compound 147]
48 | 140 | 9 | Cc1ccccc1C(=O)Nc1ccc(C(=O)N2CCCC(OCCCCN(C)C)c3ccccc32)cc1 (centres unmarked) [compound 161]
49 | 220 | 9 | Cc1ccccc1C(=O)Nc1ccc(C(=O)N2CCCC(OCC(=O)N(C)C)c3ccccc32)cc1 (centres unmarked) [compound 163]
50 | 150 | 10 | NC(=O)COC1CCCN(C(=O)c2ccc(NC(=O)c3ccccc3Cl)cc2)c2ccccc21 (centres unmarked) [compound 164]
51 | 150 | 8 | Cc1ccccc1C(=O)Nc1ccc(C(=O)N2CCCC(OCCCN)c3ccccc32)cc1 (centres unmarked) [compound 173]
52 | 140 | 7 | CC(=O)NCCCOC1CCCN(C(=O)c2ccc(NC(=O)c3ccccc3C)cc2)c2ccccc21 (centres unmarked) [compound 174]
53 | 54 | 11 | Cc1ccccc1C(=O)Nc1ccc(C(=O)N2CCSCc3ccccc32)cc1 [compound 192]
54 | 170 | 10 | CNC(=O)COC1CCCN(C(=O)c2ccc(NC(=O)c3ccccc3Cl)cc2)c2ccccc21 (centres unmarked) [compound 195]
55 | 400 | 13 | CNC(=O)OC1CCCN(C(=O)c2ccc(NC(=O)c3ccccc3C)cc2)c2ccccc21 (centres unmarked) [compound 196]
56 | 110 | 7 | Cc1ccccc1C(=O)Nc1ccc(C(=O)N2CCCC(C)c3ccccc32)cc1 (centres unmarked) [compound 208]
57 | 74 | 4 | C=C1CCCN(C(=O)c2ccc(NC(=O)c3ccccc3C)cc2)c2ccccc21 [compound 209]

From patent EP0450097B1, “BENZOHETEROCYCLIC COMPOUNDS” (OTSUKA PHARMACEUTICAL CO., LTD., priority 1989, dated 1991)
